Source: PMC11758220, “Identification of a Privileged Scaffold for Inhibition of Sterol Transport Proteins through the Synthesis and Ring Distortion of Diverse, Pseudo-Natural Products” (ACS Central Science, 2025)

Experiments:
ORP1 = target: T1, ORP1 (Homo sapiens, UniProt Q9BXW6); assay: Fluorescence polarisation (FP) competition with NBD-cholesterol, ORP1; type: binding; conditions: for inhibition at 10 µM / ORP1 (FP) inhibition: single dose, Dose = 10 µM
T1 construct: ORP1(534-950); host or cells: E. coli BL21(DE3)
T1 sequence (Q9BXW6 534-950): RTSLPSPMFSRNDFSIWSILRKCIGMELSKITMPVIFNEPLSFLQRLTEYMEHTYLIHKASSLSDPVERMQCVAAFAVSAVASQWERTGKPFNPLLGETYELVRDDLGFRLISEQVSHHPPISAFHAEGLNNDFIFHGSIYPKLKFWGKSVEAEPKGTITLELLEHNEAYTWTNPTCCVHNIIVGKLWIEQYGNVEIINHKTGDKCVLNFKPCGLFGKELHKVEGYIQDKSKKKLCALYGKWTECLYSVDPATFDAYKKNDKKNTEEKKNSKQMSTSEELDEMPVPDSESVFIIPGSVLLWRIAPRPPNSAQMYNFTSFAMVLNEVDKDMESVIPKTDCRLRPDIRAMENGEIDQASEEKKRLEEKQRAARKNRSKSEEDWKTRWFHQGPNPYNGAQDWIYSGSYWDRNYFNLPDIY
From the text: (§1) Protein expression constructs
(§2) Human ASTER domains of Aster-A(359-547), -B(364-552) and -C(318-504) were subcloned into a pGEX-6p-2rbs vector, thus introducing the cloning artifact ‘GPLGS’.3 The pGEX-6P-1-GST-OSBP(377- […]
(§3) a gift from James H. Hurley (University of California).4 The pHIS_2His6_Thrombin_STARD4(2-205;C75S) plasmid was a gift from Young Jun Im (Chonnam National University).5 STARD5A was a gift from Nicola Burgess-Brown (Addgene plasmid #42392; http://n2t.net/addgene:42392; […]
(§4) Protein expression and purification […]
(§5) vectors including an N-terminal PreScission-cleavable glutathione S-transferase (GST)-tag were expressed in Escherichia coli (E. coli) OverExpress C41 in Terrific Broth (TB) medium for 16 h at 18 °C after the induction with 0.1 mM isopropyl β-D-1-thiogalactopyranoside (IPTG). Cells were harvested at 3500 × g for 15 minutes and lysed by sonication in buffer containing 50 mM HEPES pH 7.5, 300 mM NaCl, 10 %v/v glycerol, 5 mM dithiothreitol (DTT), 0.1 %v/v Triton X-100 and protease inhibitor mix HP plus (Serva). The lysate was purified by affinity chromatography on a GSTrap FF column (Cytiva) using an ÄKTA Start (Cytiva) in buffer containing 50 mM HEPES pH 7.5, 300 mM NaCl, 10 %v/v glycerol, 5 mM DTT and 0.01 %v/v Triton X-100. The GST-tag was cleaved overnight on the column at 4 °C. The Aster sterol binding domains were further purified by size-exclusion chromatography (SEC) on a HiLoad 16/600 Superdex 75 pg (Cytiva) in buffer containing 20 mM HEPES pH 7.5, 300 mM NaCl, 10 %v/v […]
(§6) STARD5(6-213) harboring an N-terminal His6-Tag were expressed in E. coli BL21(DE3) in Luria-Bertani Broth (LB) medium for approximately 16 h at 18 °C after induction with 0.15 mM IPTG. Cells were harvested at 3500 × g for 15 minutes and lysed by sonication in buffer containing 50 mM HEPES pH 7.5, 150 mM NaCl, 5 %v/v glycerol, 5 mM DTT, 0.1 %v/v Triton X -100 and ethylenediaminetetraacetic acid (EDTA)-free protease inhibitor cocktail (Sigma-Aldrich). The cleared lysate was purified by affinity chromatography on a Ni-NTA Superflow Cartridge (Qiagen) using an ÄKTA Start (Cytiva) in buffer containing 50 mM HEPES pH 7.5, 150 mM NaCl, 5 %v/v glycerol, 5 mM DTT. START domains were eluted by using elution buffer containing 50 mM HEPES pH 7.5, 150 mM NaCl, 5 %v/v glycerol, 5 mM DTT and 500 mM imidazole. Proteins were further purified by SEC on a HiLoad 16/600 Superdex 75 pg (Cytiva) in buffer containing 20 mM HEPES pH 7.5, 150 mM NaCl, 5 %v/v glycerol and 2 mM DTT.
(§7) The ORP domain of human OSBP(377-807) in the pGEX-6p-1 vector with an N-terminal PreScission-cleavable GST-tag was expressed in E. coli OverExpress C41 in LB medium for 16 h at 18 °C after induction with 0.1 mM IPTG. Cells were harvested at 3500 × g for 15 minutes and lysed by sonication in buffer containing 20 mM HEPES pH 7.5, 300 mM NaCl, 10 %v/v glycerol, 5 mM DTT, 0.1 %v/v Triton X-100 and EDTA-free protease inhibitor cocktail (Sigma-Aldrich). The cleared lysate was purified by affinity chromatography on a GSTrap HF column (Cytiva) using an ÄKTA Start (Cytiva) in buffer containing 20 mM HEPES pH 7.5, 300 mM NaCl, 10 %v/v glycerol, 5 mM DTT. OSBP(377 -807) was eluted by using elution buffer containing 20 mM HEPES pH 7.5, 300 mM NaCl, 10 %v/v glycerol, 5 mM DTT and 10 mM reduced glutathione. Proteins were further purified by SEC on a HiLoad 16/600 Superdex 75 pg (Cytiva) using an ÄKTA Explorer (Cytiva) in buffer containing 20 mM HEPES pH 7.5, 150 mM NaCl, 10 %v/v glycerol and 2 mM DTT.
(§8) The ORP domains of human ORP1(534-950) in pET24b(+) and ORP2(49-480) in the pET24b(+) vector including an N-terminal His6-Tag were expressed in E. coli BL21(DE3) in TB medium for approximately 16 h at 18 °C after induction with 0.1 mM IPTG. Cells were collected at 3500 × g for 15 minutes and lysed by sonification in buffer containing 10 mM Tris-HCl pH 8, 300 mM NaCl, 5 % glycerol, 2 mM DTT, 0.1 % Triton X-100 and EDTA-free protease inhibitor cocktail (Sigma-Aldrich). The cleared […]

Aster-C = target: T2, Aster-C (Homo sapiens, UniProt Q8IYS0); assay: Fluorescence polarisation (FP) competition with NBD-cholesterol, Aster-C; type: binding; conditions: for IC50: mean of three experiments run in technical duplicates; for inhibition at 10 µM / Aster-C (FP) inhibition: single dose, Dose = 10 µM
T2 construct: -C(318-504); GST (PreScission-cleavable) (N, cleaved yes); made in house; host or cells: E. coli OverExpress C41
T2 sequence (Q8IYS0 318-504): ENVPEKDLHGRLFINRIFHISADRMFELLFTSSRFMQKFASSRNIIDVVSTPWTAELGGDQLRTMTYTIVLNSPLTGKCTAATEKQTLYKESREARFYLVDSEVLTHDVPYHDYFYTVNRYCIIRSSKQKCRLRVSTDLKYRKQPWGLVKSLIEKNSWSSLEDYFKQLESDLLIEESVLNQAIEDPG
From the text: as §1, §2, §3, §4, §5, §6, §7, §8

Structure (SMILES)	inhibition at 10 µM (ORP1) [%]	IC50 (Aster-C) [µM]	inhibition at 10 µM (Aster-C) [%]	ORP1 (FP) inhibition (ORP1) [%]	Aster-C (FP) inhibition (Aster-C) [%]	IC50 (ORP1; mean of three experiments run in technical duplicates) [µM]
C[C@]12CC[C@@H]3C[C@H]1CC[C@@]21C(=Nc2ccc(F)cc21)O3 [Compound 15d]	11.7	> 80	-4	–	–	–
Cc1ccc2c(c1)[C@@]13CC[C@@H]4C[C@@H](CC[C@@]41C)OC3=N2 [Compound 15e]	8.3	> 80	7	–	–	–
C[C@]12CC[C@@H](O)C[C@H]1CCC(=O)c1cc(Br)ccc1NC2=O [Compound 11b]	-1.7	–	-2.4	–	–	–
Cc1ccc2[nH]c3c(c2c1)CC[C@@H]1C[C@H](O)CC[C@]31C [Compound 10e]	27.5	–	1.6	–	–	–
C[C@]12CC[C@@H](O)C[C@H]1CCc1nc3cc(F)c(F)cc3nc12 [Compound 7c]	–	–	–	-5.0	-4	–
CC12CCC3CC1CCC21C(=Nc2ccc(N4CCOCC4)cc21)O3 (single isomer, unassigned; (+)) [(+)-19a]	–	> 80	–	-3.3	-0.8	> 80
C[C@]12CC[C@@H]3C[C@H]1CC[C@@]21C(=Nc2ccc(-c4ccccc4)cc21)O3 [Compound 21a]	60.8	> 80	-0.8	–	–	–
C[C@]12CC[C@@H](O)C[C@H]1CCC[C@]21NC(=O)c2ccccc2N1 [Compound 5a]	-2.5	–	0	0.0	-4	–
CC12CCC3CC1CCC21C(=Nc2ccc(Cl)cc21)O3 (centres unmarked) [Compound 15c]	40	> 80	-4	–	–	–
COc1ccc2c(c1)C(=O)CC[C@@H]1C[C@H](O)CC[C@]1(C)C(=O)N2 [Compound 11d]	-3.3	–	1.6	–	–	–
C[C@]12CC[C@@H](O)C[C@H]1CCc1sc(-c3ccc(F)cc3)nc12 [Compound 8e]	–	–	–	31.7	-2.4	–
CCCCCN(c1ccc2c(c1)[C@@]13CC[C@@H]4C[C@@H](CC[C@@]41C)OC3=N2)c1ccc2c(c1)[C@@]13CC[C@@H]4C[C@@H](CC[C@@]41C)OC3=N2 [Compound 20b]	–	–	–	-1.7	-3.2	–
C[C@]12CC[C@@H](O)C[C@H]1CCc1c2nc2ccccc2c1-c1ccc(F)cc1 [Compound 2d]	5	–	-2.4	–	–	–
C[C@]12CC[C@@H](O)C[C@H]1CCc1c2[nH]c2ccc(F)cc12 [Compound 10d]	–	–	–	28.3	-3.2	–
C[C@]12CC[C@@H](O)C[C@H]1CCc1c2[nH]c2ccc(Cl)cc12 [Compound 10c]	–	–	–	24.2	-8	–
